Assay results published in US9856216B2, “Compounds as TNIK, IKKε and TBK1 inhibitors and pharmaceutical composition comprising same” (GREEN CROSS CORPORATION, priority 2015, dated 2018).
Where a name gives a salt, the structure may show the parent alone.

Target: T1, TNIK (Homo sapiens, UniProt Q9UKE5)
T1 construct: purchased Promega V4158
Experiment: ADP-Glo Kinase Assay, inhibition activity on TNIK
Format: biochemical
Details: not given
Method: The inhibition activities on TNIK, IKKε and TBK1 were measured by a luminometer, TNIK/IKKε/TBK1 Kinase Enzyme System (Promega, Ca# V4158; Invitrogen, PR8031B, Promega, Ca# V3991) and ADP-Glo Kinase Assay using ADP-Glo™ Kinase Analysis Kit (Promega, Ca# V9101) and a kinase reaction buffer [40 mM Tris(pH 7.5), 20 mM MgCl2, 0.1 mg/mL BSA] in accordance with the manufacturer's protocol.

T1 sequence (Q9UKE5 1-367 limits assumed): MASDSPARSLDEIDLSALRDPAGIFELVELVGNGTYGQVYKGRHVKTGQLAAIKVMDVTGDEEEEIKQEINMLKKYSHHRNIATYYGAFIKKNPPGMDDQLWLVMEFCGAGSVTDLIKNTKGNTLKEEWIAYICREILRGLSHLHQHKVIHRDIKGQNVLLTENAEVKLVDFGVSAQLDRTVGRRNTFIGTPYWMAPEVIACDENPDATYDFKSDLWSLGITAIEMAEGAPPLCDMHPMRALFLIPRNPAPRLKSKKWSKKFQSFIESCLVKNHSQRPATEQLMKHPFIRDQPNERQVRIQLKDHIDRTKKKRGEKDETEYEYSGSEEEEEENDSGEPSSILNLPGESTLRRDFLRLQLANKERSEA

Compound | TNIK (μM)
CN(C)CCCNc1ccc(C(=O)Nc2ccc(-c3cccc(F)c3F)c3c2C(=O)NC3)cc1 [Example 368, N-(7-(2,3-difluorophenyl)-3-oxoisoindolin-4-yl)-4-((3-(dimethylamino)propyl)amino)benzamide] | Insoluble
O=C(Nc1ccc(-c2cccs2)c2c1C(=O)NC2)c1ccc(NCCO)cc1 [Example 371, 4-((2-Hydroxyethyl)amino)-N-(3-oxo-7-(thiophen-2-yl)isoindolin-4-yl)benzamide] | Insoluble

Same assay, conditions: read-out: TNIK

Compound | IC50
COc1ccccc1-c1ccc(NC(=O)c2ccc(NCCO)cc2)c2c1CNC2=O [Example 352, 4-((2-Hydroxyethyl)amino)-N-(7-(2-methoxyphenyl)-3-oxoisoindolin-4-yl)benzamide] | 84 nM
O=C(Nc1ccc(-c2ccccc2O)c2c1C(=O)NC2)c1ccc(NCCO)cc1 [Example 353, 4-((2-Hydroxyethyl)amino)-N-(7-(2-hydroxyphenyl)-3-oxoisoindolin-4-yl)benzamide] | 370 nM
COc1ccccc1-c1ccc(NC(=O)c2ccc(NCCCO)cc2)c2c1CNC2=O [Example 354] | 220 nM
O=C(Nc1ccc(-c2ccccc2O)c2c1C(=O)NC2)c1ccc(NCCCO)cc1 [Example 355] | 590 nM
COc1ccccc1-c1ccc(NC(=O)c2ccc(NCCCCO)cc2)c2c1CNC2=O [Example 356, 4-((4-Hydroxybutyl)amino)-N-(7-(2-methoxyphenyl)-3-oxoisoindolin-4-yl)benzamide] | 250 nM
O=C(Nc1ccc(-c2ccccc2O)c2c1C(=O)NC2)c1ccc(NCCCCO)cc1 [Example 357, 4-((4-Hydroxybutyl)amino)-N-(7-(2-hydroxyphenyl)-3-oxoisoindolin-4-yl)benzamide] | 640 nM
CNCCN(C)c1ccc(C(=O)Nc2ccc(-c3ccccc3)c3c2C(=O)NC3)cc1 [Example 358, 4-(Methyl(2-(methylamino)ethyl)amino)-N-(3-oxo-7-phenylisoindolin-4-yl)benzamide] | 1100 nM
O=C(Nc1ccc(-c2cccc(F)c2F)c2c1C(=O)NC2)c1ccc(NCCN2CCOCC2)cc1 [Example 359, N-(7-(2,3-difluorophenyl)-3-oxoisoindolin-4-yl)-4-((2-morpholinoethyl)amino)benzamide] | 170 nM
O=C(Nc1ccc(-c2ccccc2)c2c1C(=O)NC2)c1ccc(NCCN2CCCCC2)cc1 [Example 360, N-(3-oxo-7-phenylisoindolin-4-yl)-4-((2-(piperidin-1-yl)ethyl)amino)benzamide] | 320 nM
COc1ccccc1-c1ccc(NC(=O)c2ccc(NCCN3CCCCC3)cc2)c2c1CNC2=O [Example 361, N-(7-(2-methoxyphenyl)-3-oxoisoindolin-4-yl)-4-((2-(piperidin-1-yl)ethyl)amino)benzamide] | 170 nM
CN(C)CCNc1ccc(C(=O)Nc2ccc(-c3ccccc3)c3c2C(=O)NC3)cc1 [Example 362, 4-((2-(Dimethylamino)ethyl)amino)-N-(3-oxo-7-phenylisoindolin-4-yl)benzamide] | 490 nM
O=C(Nc1ccc(-c2ccccc2)c2c1C(=O)NC2)c1ccc(NCCCN2CCCC2)cc1 [Example 363, N-(3-oxo-7-phenylisoindolin-4-yl)-4-((3-(pyrrolidin-1-yl)propyl)amino)benzamide] | 330 nM
O=C(Nc1ccc(-c2cccc(F)c2F)c2c1C(=O)NC2)c1ccc(NCCN2CCCC2)cc1 [Example 364, N-(7-(2,3-difluorophenyl)-3-oxoisoindolin-4-yl)-4-((2-(pyrrolidin-1-yl)ethyl)amino)benzamide] | 180 nM
O=C(Nc1ccc(-c2cccc(F)c2F)c2c1C(=O)NC2)c1ccc(NCCN2CCCC2)cc1 [Example 365, N-(7-(2,3-difluorophenyl)-3-oxoisoindolin-4-yl)-4-((2-(pyrrolidin-1-yl)ethyl)amino)benzamide hydrochloride] | 170 nM
O=C(Nc1ccc(-c2cccc(F)c2F)c2c1C(=O)NC2)c1ccc(NCCCN2CCCC2)cc1 [Example 366, N-(7-(2,3-difluorophenyl)-3-oxoisoindolin-4-yl)-4-((3-(pyrrolidin-1-yl)propyl)amino)benzamide hydrochloride] | 170 nM
CN(C)CCNc1ccc(C(=O)Nc2ccc(-c3cccc(F)c3F)c3c2C(=O)NC3)cc1 [Example 367, N-(7-(2,3-difluorophenyl)-3-oxoisoindolin-4-yl)-4-((2-(dimethylamino)ethyl)amino)benzamide] | 280 nM
O=C(Nc1ccc(-c2ccccc2)c2c1C(=O)NC2)c1ccc(NCCN2CCCCCC2)cc1 [Example 369, 4-((2-(Azepan-1-yl)ethyl)amino)-N-(3-oxo-7-phenylisoindolin-4-yl)benzamide] | 560 nM
O=C(Nc1ccc(-c2ccccc2)c2c1C(=O)NC2)c1ccc(NCCCN2CCCCC2)cc1 [Example 370, N-(3-oxo-7-phenylisoindolin-4-yl)-4-((3-(piperidin-1-yl)propyl)amino)benzamide] | 510 nM
COCCNc1ccc(C(=O)Nc2ccc(-c3cccs3)c3c2C(=O)NC3)cc1 [Example 372, 4-((2-Methoxyethyl)amino)-N-(3-oxo-7-(thiophen-2-yl)isoindolin-4-yl)benzamide] | 1360 nM
CN(C)CCNc1ccc(C(=O)Nc2ccc(-c3cccs3)c3c2C(=O)NC3)cc1 [Example 373, 4-((2-(Dimethylamino)ethyl)amino)-N-(3-oxo-7-(thiophen-2-yl)isoindolin-4-yl)benzamide] | 400 nM
O=C(Nc1ccc(-c2cccs2)c2c1C(=O)NC2)c1ccc(NCCN2CCCCC2)cc1 [Example 374, N-(3-oxo-7-(thiophen-2-yl)isoindolin-4-yl)-4-((2-(piperidin-1-yl)ethyl)amino)benzamide] | 480 nM
O=C(Nc1ccc(-c2cccs2)c2c1C(=O)NC2)c1ccc(NCCN2CCOCC2)cc1 [Example 375, 4-((2-Morpholinoethyl)amino)-N-(3-oxo-7-(thiophen-2-yl)isoindolin-4-yl) benzamide] | 540 nM
O=C(Nc1ccc(-c2cccc3ncoc23)c2c1C(=O)NC2)c1ccc(NCCN2CCCC2)cc1 [Example 376, N-(7-(benzo[d]oxazol-7-yl)-3-oxoisoindolin-4-yl)-4-((2-(pyrrolidin-1-yl)ethyl)amino)benzamide] | 72 nM
Cc1nc2cccc(-c3ccc(NC(=O)c4ccc(NCCN5CCCC5)cc4)c4c3CNC4=O)c2o1 [Example 377, N-(7-(2-methylbenzo[d]oxazol-7-yl)-3-oxoisoindolin-4-yl)-4-((2-(pyrrolidin-1-yl)ethyl)amino)benzamide] | 360 nM
CN1CCN(CCNc2ccc(C(=O)Nc3ccc(-c4cccs4)c4c3C(=O)NC4)cc2)CC1 [Example 378, 4-((2-(4-Methylpiperazin-1-yl)ethyl)amino)-N-(3-oxo-7-(thiophen-2-yl)isoindolin-4-yl)benzamide] | 130 nM
CN1CCN(CCNc2ccc(C(=O)Nc3ccc(-c4ccccc4)c4c3C(=O)NC4)cc2)CC1 [Example 379, 4-((2-(4-Methylpiperazin-1-yl)ethyl)amino)-N-(3-oxo-7-phenylisoindolin-4-yl)benzamide] | 350 nM
O=C(Nc1ccc(-c2ccccc2)c2c1C(=O)NC2)c1ccc(NCCO)cc1 [Example 380, 4-((2-Hydroxyethyl)amino)-N-(3-oxo-7-phenylisoindolin-4-yl) benzamide] | 230 nM
